Reference: patent US10464925B2, “Methods to induce targeted protein degradation through bifunctional molecules” (Dana-Farber Cancer Institute, Inc., priority 2015, dated 2019)

Tests used:
MDA-MB-436 = test: cells; conditions: Homo sapiens, MDA-MB-436, 72 h
CCF-STTG1 = test: Cell viability, ATPlite 72 hours; format: cell-based; conditions: Homo sapiens
MKN45 = test: cells; conditions: Homo sapiens, MKN-45, 72 h
SW1783 = test: cells; conditions: Homo sapiens, SW1783, 72 h
KP2 = test: cells; conditions: 72 h
SUM149R = test: cells; conditions: 72 h
NMC-G1 = test: cells; conditions: 72 h
PANC032 = test: cells; conditions: 72 h
SUM185 = test: cells; conditions: 72 h
NCI-H838 = test: cells; conditions: Homo sapiens, NCI-H838, 72 h
NCI-H460 = test: cells; conditions: Homo sapiens, NCI-H460, 72 h
MC116 = test: cells; conditions: Homo sapiens, MC116, 72 h
SKMEL28 = test: cells; conditions: Homo sapiens, SK-MEL-28, 72 h
Calu6 = test: Cell viability, ATPlite 72 hours; format: cell-based; conditions: Homo sapiens, Calu-6
Description: Various cell lines were seeded into 384-well tissue culture-treated plates at a density of 2,000 cells per well in a volume of 50 μL/well. […] After 72 hours of incubation, cells were analyzed for cell viability using the ATPlite (PerkinElmer) Luminescence Assay Kit per the manufacturer's instructions, using ATP content as a surrogate for viable cell number. Luminescence was read on an EnVision 2104 Multilabel Plate Reader (PerkinElmer).

T47D = test: cells; conditions: Homo sapiens, 72 h
KP-N-YN = test: cells; conditions: 72 h
SUM159 = test: cells; conditions: SUM159, 72 h
MDA-MB-231 = test: cells; conditions: Homo sapiens, MDA-MB-231, 72 h
DND41 = test: Cell viability, ATPlite 48 hours, DND41; format: cell-based; conditions: DND41 cells
Description: (§1) ATP content was measured as a surrogate for cellular viability using ATPlite (Promega).

MOLT4 = test: Cell viability, ATPlite 48 hours, MOLT4; format: cell-based; conditions: Homo sapiens, MOLT-4; MOLT4 cells
Description: as §1

LCLC-103H = test: cells; conditions: Homo sapiens, 72 h
BRDT = BRDT (Homo sapiens, UniProt Q58F21); test: BRDT IC50 (Table 4); format: binding; conditions: read-out: IC50 (nM) BRDT
A549 = test: cells; conditions: Homo sapiens, A549, 72 h
HCT116 = test: cells; conditions: Homo sapiens, HCT-116, 72 h
ASPC1 = test: cells; conditions: Homo sapiens, ASPC1, 72 h
Cl-1 = test: cells; conditions: 72 h
ZR-75-1_YMB-1 = test: cells; conditions: 72 h
SUM149 = test: cells; conditions: SUM149, 72 h
CUTL1 = test: Cell viability, ATPlite 48 hours, CUTLL1; format: cell-based; conditions: CUTL1 cells
Description: as §1

SBC-5 = test: cells; conditions: Homo sapiens, SBC-5, 72 h
SUM159R = test: cells; conditions: 72 h

Cc1sc2c(c1C)C(c1ccc(Cl)cc1)=N[C@@H](CC(=O)NCCCCCCCCNC(=O)COc1cccc3c1C(=O)N(C1CCC(=O)NC1=O)C3=O)c1nnc(C)n1-2 (stereo partly drawn) [dBET6]
Emax (MDA-MB-436; read-out: Emax (%) MDA-MB-436): 29.5% | IC50 (MDA-MB-436; read-out: IC50 (nM) MDA-MB-436): 39.6 nM | Emax (CCF-STTG1): 45.8% | Emax (MKN45; read-out: Emax (%) MKN45): 19.4% | IC50 (MKN45; read-out: IC50 (nM) MKN45): 41.1 nM | Emax (SW1783; read-out: Emax (%) SW1783): 22.2% | IC50 (SW1783; read-out: IC50 (nM) SW1783): 38.2 nM | Emax (KP2; read-out: Emax (%) KP2): 20.7% | IC50 (KP2; read-out: IC50 (nM) KP2): 513 nM | Emax (SUM149R; read-out: Emax (%) SUM149R): 10.6% | IC50 (SUM149R; read-out: IC50 (nM) SUM149R): 18.5 nM | Emax (NMC-G1; read-out: Emax (%) NMC-G1): 36.6% | IC50 (NMC-G1; read-out: IC50 (nM) NMC-G1): 70 nM | Emax (PANC032; read-out: Emax (%) PANC032): 53.2% | IC50 (PANC032; read-out: IC50 (nM) PANC032): 1450 nM | Emax (SUM185; read-out: Emax (%) SUM185): 22.9% | IC50 (SUM185; read-out: IC50 (nM) SUM185): 1.44 nM | Emax (NCI-H838; read-out: Emax (%) NCI-H838): 32.2% | IC50 (NCI-H838; read-out: IC50 (nM) NCI-H838): 52 nM | Emax (NCI-H460; read-out: Emax (%) NCI-H460): 34.4% | IC50 (NCI-H460; read-out: IC50 (nM) NCI-H460): 438 nM | Emax (MC116; read-out: Emax (%) MC116): 0.32% | IC50 (MC116; read-out: IC50 (nM) MC116): 20.5 nM | Emax (SKMEL28; read-out: Emax (%) SKMEL28): 59% | IC50 (SKMEL28; read-out: IC50 (nM) SKMEL28): 474 nM | Emax (Calu6): 51.7% | IC50 (Calu6): 233 nM | Emax (T47D; read-out: Emax (%) T47D): 49.4% | IC50 (T47D; read-out: IC50 (nM) T47D): 7.46 nM | Emax (KP-N-YN; read-out: Emax (%) KP-N-YN): 42.8% | IC50 (KP-N-YN; read-out: IC50 (nM) KP-N-YN): 9.41 nM | Emax (SUM159; read-out: Emax (%) SUM159): 12% | IC50 (SUM159; read-out: IC50 (nM) SUM159): 32.5 nM | Emax (MDA-MB-231; read-out: Emax (%) MDA-MB-231): 24.2% | IC50 (MDA-MB-231; read-out: IC50 (nM) MDA-MB-231): 146 nM | IC50 (DND41): 34.4 nM | IC50 (MOLT4): 65.3 nM | Emax (LCLC-103H; read-out: Emax (%) LCLC-103H): 24% | IC50 (LCLC-103H; read-out: IC50 (nM) LCLC-103H): 84.2 nM | IC50 (BRDT): 56 nM | Emax (A549; read-out: Emax (%) A549): 30.9% | IC50 (A549; read-out: IC50 (nM) A549): 1900 nM | Emax (HCT116; read-out: Emax (%) HCT116): 26.9% | IC50 (HCT116; read-out: IC50 (nM) HCT116): 154 nM | Emax (ASPC1; read-out: Emax (%) ASPC1): 50.4% | IC50 (ASPC1; read-out: IC50 (nM) ASPC1): 1460 nM | Emax (Cl-1; read-out: Emax (%) Cl-1): 10.7% | IC50 (Cl-1; read-out: IC50 (nM) Cl-1): 23.3 nM | Emax (ZR-75-1_YMB-1; read-out: Emax (%) ZR-75-1_YMB-1): 21.6% | IC50 (ZR-75-1_YMB-1; read-out: IC50 (nM) ZR-75-1_YMB-1): 23.5 nM | Emax (SUM149; read-out: Emax (%) SUM149): 27.9% | IC50 (SUM149; read-out: IC50 (nM) SUM149): 131 nM | IC50 (CUTL1): 70.8 nM | Emax (SBC-5; read-out: Emax (%) SBC-5): 21.6% | IC50 (SBC-5; read-out: IC50 (nM) SBC-5): 841 nM | Emax (SUM159R; read-out: Emax (%) SUM159R): 36% | IC50 (SUM159R; read-out: IC50 (nM) SUM159R): 92.4 nM
